How the values were obtained:
Test in all cases: relative viability (nuclei count vs DMSO), 5 days (fraction); higher = more cells survive
PC-3 [JPC-3] = test system: PC-3 [JPC-3]
Procedure, shortened: (§1)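 The day after seeding in 1536-well plates, lung cancer cell lines were treated by pin tool with a single drug, or with a fixed anchor-drug dose together with five library-drug doses (not always all listed) in √10 steps. After 5 days, a combined fix-and-stain solution (final 0.05% Triton X-100, 1% formaldehyde, 1 ug/ml Hoechst) was added. Nuclei counted on 4× images gave relative viability as treated counts over vehicle counts, reported as the median of duplicate plates.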

LU99A = test system: LU99A
Procedure, shortened: as §1

NCI-H2405 = test system: NCI-H2405
Procedure, shortened: as §1

HCC-78 = test system: HCC-78
Procedure, shortened: as §1

CAL-12T = test system: CAL-12T
Procedure, shortened: as §1

NCI-H1755 = test system: NCI-H1755
Procedure, shortened: as §1

LOU-NH91 = test system: LOU-NH91
Procedure, shortened: as §1

NCI-H460 = test system: NCI-H460
Procedure, shortened: as §1

LC-2-ad = test system: LC-2-ad
Procedure, shortened: as §1

UMC-11 = test system: UMC-11
Procedure, shortened: as §1

NCI-H3122 = test system: NCI-H3122
Procedure, shortened: as §1

NCI-H2228 = test system: NCI-H2228
Procedure, shortened: as §1

ABC-1 = test system: ABC-1
Procedure, shortened: as §1

RERF-LC-KJ = test system: RERF-LC-KJ
Procedure, shortened: as §1

ChaGo-K-1 = test system: ChaGo-K-1
Procedure, shortened: as §1

NCI-H1944 = test system: NCI-H1944
Procedure, shortened: as §1

NCI-H1651 = test system: NCI-H1651
Procedure, shortened: as §1

NCI-H2170 = test system: NCI-H2170
Procedure, shortened: as §1

HCC-366 = test system: HCC-366
Procedure, shortened: as §1

NCI-H2087 = test system: NCI-H2087
Procedure, shortened: as §1

O=c1cc(-c2cccc3c2Sc2ccccc2S3)oc(N2CCOCC2)c1 + C[C@@H](Oc1cc(-c2cnn(C3CCNCC3)c2)cnc1N)c1c(Cl)ccc(F)c1Cl [Crizotinib] (partner 1 µM)
relative viability (PC-3 [JPC-3]; first compound 0.08 µM): 0.983
relative viability (PC-3 [JPC-3]; first compound 0.253 µM): 1.01
relative viability (PC-3 [JPC-3]; first compound 0.8 µM): 1.03
relative viability (PC-3 [JPC-3]; first compound 2.53 µM): 0.971
relative viability (PC-3 [JPC-3]; first compound 8 µM): 1.02
relative viability (LU99A; first compound 0.08 µM): 0.552
relative viability (LU99A; first compound 0.253 µM): 0.574
relative viability (LU99A; first compound 0.8 µM): 0.932
relative viability (LU99A; first compound 2.53 µM): 0.596
relative viability (LU99A; first compound 8 µM): 0.701
relative viability (NCI-H2405; first compound 0.08 µM): 0.831
relative viability (NCI-H2405; first compound 0.253 µM): 0.887
relative viability (NCI-H2405; first compound 0.8 µM): 0.832
relative viability (NCI-H2405; first compound 2.53 µM): 0.759
relative viability (NCI-H2405; first compound 8 µM): 0.853
relative viability (HCC-78; first compound 0.08 µM): 0.286
relative viability (HCC-78; first compound 0.253 µM): 0.34
relative viability (HCC-78; first compound 0.8 µM): 0.291
relative viability (HCC-78; first compound 2.53 µM): 0.342
relative viability (HCC-78; first compound 8 µM): 0.34
relative viability (CAL-12T; first compound 0.08 µM): 0.729
relative viability (CAL-12T; first compound 0.253 µM): 0.686
relative viability (CAL-12T; first compound 0.8 µM): 0.85
relative viability (CAL-12T; first compound 2.53 µM): 0.6
relative viability (CAL-12T; first compound 8 µM): 0.731
relative viability (NCI-H1755; first compound 0.08 µM): 0.961
relative viability (NCI-H1755; first compound 0.253 µM): 0.974
relative viability (NCI-H1755; first compound 0.8 µM): 0.937
relative viability (NCI-H1755; first compound 2.53 µM): 0.878
relative viability (NCI-H1755; first compound 8 µM): 0.85
relative viability (LOU-NH91; first compound 0.08 µM): 0.727
relative viability (LOU-NH91; first compound 0.253 µM): 0.718
relative viability (LOU-NH91; first compound 0.8 µM): 0.707
relative viability (LOU-NH91; first compound 2.53 µM): 0.702
relative viability (LOU-NH91; first compound 8 µM): 0.776
relative viability (NCI-H460; first compound 0.08 µM): 1
relative viability (NCI-H460; first compound 0.8 µM): 0.761
relative viability (NCI-H460; first compound 2.53 µM): 1.12
relative viability (NCI-H460; first compound 8 µM): 1.79
relative viability (LC-2-ad; first compound 0.08 µM): 0.392
relative viability (LC-2-ad; first compound 0.253 µM): 0.499
relative viability (LC-2-ad; first compound 0.8 µM): 0.525
relative viability (LC-2-ad; first compound 2.53 µM): 0.436
relative viability (LC-2-ad; first compound 8 µM): 0.509
relative viability (UMC-11; first compound 0.08 µM): 0.729
relative viability (UMC-11; first compound 0.253 µM): 0.566
relative viability (UMC-11; first compound 0.8 µM): 0.729
relative viability (UMC-11; first compound 2.53 µM): 0.644
relative viability (UMC-11; first compound 8 µM): 0.701
relative viability (NCI-H3122; first compound 0.08 µM): 0.324
relative viability (NCI-H3122; first compound 0.253 µM): 0.266
relative viability (NCI-H3122; first compound 0.8 µM): 0.24
relative viability (NCI-H3122; first compound 2.53 µM): 0.3
relative viability (NCI-H3122; first compound 8 µM): 0.323
relative viability (NCI-H2228; first compound 0.08 µM): 0.407
relative viability (NCI-H2228; first compound 0.253 µM): 0.506
relative viability (NCI-H2228; first compound 0.8 µM): 0.399
relative viability (NCI-H2228; first compound 2.53 µM): 0.394
relative viability (NCI-H2228; first compound 8 µM): 0.354
relative viability (ABC-1; first compound 0.08 µM): 1.27
relative viability (ABC-1; first compound 0.253 µM): 1.24
relative viability (ABC-1; first compound 0.8 µM): 1.05
relative viability (ABC-1; first compound 2.53 µM): 1.31
relative viability (ABC-1; first compound 8 µM): 1.49
relative viability (RERF-LC-KJ; first compound 0.08 µM): 0.823
relative viability (RERF-LC-KJ; first compound 0.253 µM): 0.922
relative viability (RERF-LC-KJ; first compound 0.8 µM): 0.871
relative viability (RERF-LC-KJ; first compound 2.53 µM): 0.948
relative viability (RERF-LC-KJ; first compound 8 µM): 1.05
relative viability (ChaGo-K-1; first compound 0.08 µM): 1.09
relative viability (ChaGo-K-1; first compound 0.253 µM): 1.35
relative viability (ChaGo-K-1; first compound 0.8 µM): 1.25
relative viability (ChaGo-K-1; first compound 8 µM): 1.22
relative viability (NCI-H1944; first compound 0.08 µM): 1.12
relative viability (NCI-H1944; first compound 0.253 µM): 1.23
relative viability (NCI-H1944; first compound 0.8 µM): 1.17
relative viability (NCI-H1944; first compound 8 µM): 1.08
relative viability (NCI-H1651; first compound 0.08 µM): 0.916
relative viability (NCI-H1651; first compound 0.253 µM): 0.889
relative viability (NCI-H1651; first compound 0.8 µM): 0.916
relative viability (NCI-H1651; first compound 2.53 µM): 0.882
relative viability (NCI-H1651; first compound 8 µM): 0.903
relative viability (NCI-H2170; first compound 0.08 µM): 1.17
relative viability (NCI-H2170; first compound 0.253 µM): 1.19
relative viability (NCI-H2170; first compound 0.8 µM): 1.31
relative viability (NCI-H2170; first compound 2.53 µM): 1.12
relative viability (NCI-H2170; first compound 8 µM): 1.26
relative viability (HCC-366; first compound 0.08 µM): 0.53
relative viability (HCC-366; first compound 0.253 µM): 0.731
relative viability (HCC-366; first compound 0.8 µM): 0.725
relative viability (HCC-366; first compound 2.53 µM): 0.498
relative viability (HCC-366; first compound 8 µM): 1.1
relative viability (NCI-H2087; first compound 0.08 µM): 0.982
relative viability (NCI-H2087; first compound 0.253 µM): 0.966
relative viability (NCI-H2087; first compound 0.8 µM): 1.12
relative viability (NCI-H2087; first compound 2.53 µM): 0.927
relative viability (NCI-H2087; first compound 8 µM): 1.01

From the supplement of paper PMC10307832
